Measurements as given in patent publication US12396992B2, “Organic compounds” (INTRA-CELLULAR THERAPIES, INC., priority 2019, dated 2025).
“Also recorded” adds a separate entry of the source. One block for each molecule: values may come before it.

Legend:
[1] = tested on: BV2 cells; assay: Quantitative PCR of inflammatory cytokine mRNA in LPS-stimulated BV2 cells; assay type: cell-based, mouse; settings: for LPS-induced expression of Ccl2 / LPS-induced expression of IL1β / LPS-induced expression of TNFα: FIG. 3a; for Chemokine (C—C) motif Ligand 2 expression / Interleukin 1 beta expression / Tumor necrosis factor expression: BV2 + LPS, Q-PCR, initial results
Procedure: Levels of IL1 are measured using quantitative PCR of IL1β mRNA. IL1β is considered a marker of inflammation. Results are depicted in FIG. 2 (RQ: relative quantification of changes in gene expression in treated versus control samples; ***p<0.01 vs control, √p<0.01 vs LPS alone; ANOVA with Newman-Keuls post-hoc test).
BV2 cells are pretreated with compound, ITI-214 or rolipram, a PDE4 inhibitor, then stimulated with 50 ng/ml LPS for 4 hours. Expression levels of TNF, IL1β, Ccl2, and IL6 are measured. Normalized mRNA levels are shown as change from vehicle (ΔΔCt) and compared using a one-way ANOVA. […] The mRNA transcripts for TNF, IL1β, and Ccl2—three of the four cytokines studied in vivo—were elevated in BV2 cells treated with 50 ng/ml LPS.
(§1) The test compound is added first, the LPS is added one hour later, and the cells and/or media are harvested at five hours from commencement of the experiment.
Cells: BV2 mouse microglial cell line (ICLC, Italy) grown in 2% or 10% heat-inactivated FBS.
(§2) RTqPCR: RNA from BV2 cells purified using RNeasyKit (Qiagen) and from mouse tissue using TRIzol (Ambion). TaqMan primer-probe assays from Thermo Fisher. mRNA levels for all conditions are normalized to GAPDH and to vehicle control (ΔΔCt). Data are analyzed statistically using one-way ANOVA with the Bonferroni post-test for multiple comparisons.

[2] = tested on: mouse striatum; assay: LPS-induced inflammatory gene expression in mouse striatum (Q-PCR); assay type: in vivo
Procedure: as §2
Data from yet another experiment measuring the effect of PDE1 inhibition on inflammatory gene expression in mouse striatum is depicted in FIG. 6. […] Striatal tissue is analyzed for mRNA levels of TNF, IL1β, Ccl2, and IL6. Expression levels are shown as change in Q-PCR signal from vehicle (ΔΔCt) and compared using an ANOVA. * p<0.05, **p<0.01, ***p<0.001.
The Applicants measure mRNA levels of four common inflammatory markers (TNF, IL1β, Ccl2, and IL6) using quantitative PCR (FIG. 7).

[3] = tested on: mouse striatum; assay: as above; assay type: in vivo; settings: initial results
[4] = molecular target: T1, bovine brain PDE1 (Bos taurus, UniProt Q01061); assay: IMAP phosphodiesterase assay, PDE1; assay type: biochemical
T1 construct: IC50; other: bovine brain PDE1; Ki; other: bovine brain PDE1 assay
Text: Briefly, the IMAP reagent binds with high affinity to the free 5′-phosphate that is found in GMP-fluorescein and not in cGMP-fluorescein. The resulting GMP-fluorescein-IMAP complex is large relative to cGMP-fluorescein. Small fluorophores that are bound up in a large, slowly tumbling, complex can be distinguished from unbound fluorophores, because the photons emitted as they fluoresce retain the same polarity as the photons used to excite the fluorescence.
The PDE1 enzyme is reconstituted with 50% glycerol to 2.5 U/ml. […] The compounds are mixed and pre-incubated with the enzyme for 10 min at room temperature.
The reaction is incubated in dark at room temperature for 15 min.

[5] = tested on: HL60 cells; assay: cGMP levels in PMA-differentiated HL60 cells with ANP and ionomycin (competitive ELISA); assay type: cell-based, human
Procedure: We have shown that there is a synergistic effect between ANP and PDE1 inhibition. An immortalized human pro-myeloid cell line (HL60 from ATCC) is grown, differentiated and harvested as described in Bender, A T, and Beavo, J A, 2006, PNAS 103, 460-465. The cells are grown in HEPES buffered RPMI 1640 medium with penicillin, streptomycin, and 10% fetal bovine serum. Phorbol-12-myristate-13-acetate (PMA), at 100 nM for 3 days, is used to differentiate the HL60 cells into macrophage-like cells. Following differentiation, the cells are incubated with a PDE1 inhibitor or vehicle (DMSO) beginning at time 0. At 40 minutes, 5 μM ionomycin (a calcium ionophore) is added. At 50 minutes, 100 nM ANP was added. At 60 minutes, the cells are harvested. Total cGMP levels are measured using a competitive ELISA (Bender and Beavo, 2006).
[drawing 33] is tested for its effect on cGMP levels in this system. […] In addition, the cGMP level attained by co-treatment with ANP and the PDE1 inhibitor is much greater than that obtained by co-treatment with ANP and a mixed PDE1/PDE5 inhibitor, SCH 51866 (used at 5 μM). In this experiment, the calcium ionophore ionomycin (used at 5 μM) is used to raise the intracellular calcium level and to counteract the cGMP rise induced by ANP.

[6] = tested on: BV2 cells; assay: LPS-induced TNFα release from BV2 cells (ELISA); assay type: cell-based, mouse; settings: 50 ng/ml LPS stimulation, FIG. 4
Procedure: TNFα release: TNFα levels are measured in BV2 conditioned media and normalized to cell protein levels. Inhibition of LPS-induced TNFα release from BV2 cells is depicted in FIG. 4.
as §1
TNFα ELISA: Thermo Fisher mouse TNFα colorimetric, sandwich ELISA kit. Interpolate values from standard curve. Dose response is fit to a 4-parameter logistic curve.

[7] = tested on: BV2 cells; assay: ADP-induced chemotaxis of BV2 cells in Boyden chamber; assay type: cell-based, mouse; settings: 100 μM ADP, 4 hrs
Procedure: Chemotaxis towards 100 μM ADP was measured in a Boyden chamber system for 4 hrs against a vehicle control. BV2 cells were added to the upper chamber of a 5 μm pore Boyden chamber with 100 μM ADP or vehicle in the lower chamber and incubated at 37′C with 5% CO2 for 4 hours. The curve was fit to a 4-parameter logarithmic equation with the following constraints: top >80% and bottom <20%. […] As shown in the left panel of FIG. 7A, raw fluorescence counts (relative fluorescence units or RFU), representing the cell count in the lower chamber, were used to calculate control conditions. The Vehicle condition represents the minimum migration, in which there was no ADP present. The maximum migration was shown as the 100 μM ADP condition.
The measured potency correlates with documented IC50 values.

[8] = tested on: BV2 cells; assay: cAMP (ELISA) and P-VASP S157 (Western blot) in BV2 cells with ADP; assay type: cell-based, mouse; settings: for P-VASP level at baseline / cAMP level at baseline: no ADP stimulation
Procedure: Cell lysates on a Western were blotted with an antibody to phosphorylated VASP at S157, and the intensity of the resulting bands were measured (as raw signal). […] There was no effect of PDE1 inhibition at baseline, consistent with the hypothesis that PDE1 is important under conditions of stimulation. […] As with cAMP, PDE1 activity (sensitive to ITI-214) appears to contribute about 50% to the total PDE activity (sensitive to IBMX) under conditions of stimulation while having no contribution at baseline. The dose dependent nature of the increase in cAMP is illustrated in FIG. 9.

[9] = tested on: primary cultured microglia; assay: VASP phosphorylation in primary cultured rat microglia; assay type: cell-based; settings: 1 μM
Procedure: The above results were replicated in primary cultured microglia isolated from P2 rat whole brain (FIG. 10). Microglia were grown in culture for 12 days in serum-free media containing TGFb2, IL34, and cholesterol. The cells maintained properties in culture consistent with quiescent microglial-like cells, staining positive for Iba1 and maintaining a branched morphology.

[10] = tested on: CT26 colorectal carcinoma cells; assay: CT26 colorectal carcinoma engrafted subcutaneously in mice; assay type: in vivo, mouse; settings: for number of macrophages (CD45 positive) in the tumor microenvironment: 50 mg/kg, i.p., once daily
Procedure: Mice were engrafted subcutaneously with CT26 colorectal carcinoma cells. Control mice were administered 150 μg IgG (Isotype).

[11] = tested on: BV2 cells; assay: Quantitative PCR of inflammatory cytokine mRNA in LPS-stimulated BV2 cells; assay type: cell-based, mouse; settings: LPS 10 microgram/ml, Compound 214 10 microgram/ml, FIG. 2
[12] = molecular target: P2Y12 (Homo sapiens, UniProt Q9H244); settings: P2Y12 inhibitors; read-out: documented IC50; cited from earlier work
[13] = Striatum Mouse + LPS, Q-PCR, initial results
[14] = 10 μM, 50 ng/ml LPS for 4 hours, FIG. 3b
[15] = 10 mg/kg i.p., 500 μg/kg LPS s.c., 2 hours
[16] = 10 mg/kg i.p., 500 μg/kg LPS s.c., 2 hours, does not reach significance

T1 sequence (Q01061 whole entry): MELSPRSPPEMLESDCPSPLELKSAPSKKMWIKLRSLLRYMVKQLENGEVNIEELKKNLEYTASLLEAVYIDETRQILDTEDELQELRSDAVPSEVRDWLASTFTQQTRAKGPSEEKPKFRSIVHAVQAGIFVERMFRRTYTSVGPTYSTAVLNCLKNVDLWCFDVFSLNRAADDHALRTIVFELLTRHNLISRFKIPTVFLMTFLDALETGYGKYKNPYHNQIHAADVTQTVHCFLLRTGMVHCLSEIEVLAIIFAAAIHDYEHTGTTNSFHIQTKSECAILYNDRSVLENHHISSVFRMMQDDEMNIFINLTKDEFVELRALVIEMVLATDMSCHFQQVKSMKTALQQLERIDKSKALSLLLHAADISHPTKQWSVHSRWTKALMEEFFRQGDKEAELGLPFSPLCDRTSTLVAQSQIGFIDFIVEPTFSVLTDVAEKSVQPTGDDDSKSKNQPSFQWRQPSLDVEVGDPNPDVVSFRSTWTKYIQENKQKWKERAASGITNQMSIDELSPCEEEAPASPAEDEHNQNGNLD
Chain of P2Y12 (Q9H244 whole entry, species assumed): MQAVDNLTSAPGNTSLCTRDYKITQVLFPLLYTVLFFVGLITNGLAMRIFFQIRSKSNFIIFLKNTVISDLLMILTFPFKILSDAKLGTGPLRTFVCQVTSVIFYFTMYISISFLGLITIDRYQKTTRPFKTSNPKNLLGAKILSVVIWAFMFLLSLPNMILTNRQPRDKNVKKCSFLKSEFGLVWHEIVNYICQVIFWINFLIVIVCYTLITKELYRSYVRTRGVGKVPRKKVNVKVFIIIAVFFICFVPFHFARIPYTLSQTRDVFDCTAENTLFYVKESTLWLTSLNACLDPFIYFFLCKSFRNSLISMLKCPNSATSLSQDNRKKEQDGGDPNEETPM

Compound: COc1ccc(C2CNC(=O)C2)cc1OC1CCCC1 (centres unmarked) [rolipram, reference compound]
- LPS-induced expression of Ccl2 ([1]; 10 μM): reducing
- LPS-induced expression of IL1β ([1]; 10 μM): increasing
- LPS-induced expression of TNFα ([1]; 10 μM): reducing
- Chemokine (C—C) motif Ligand 2 expression [1]: Down
- Interleukin 1 beta expression [1]: UP UP
- Tumor necrosis factor expression [1]: Down
- Chemokine (C—C) motif Ligand 2 expression [2, 13]: Down
- Interleukin 1 beta expression [2, 13]: UP-UP
- Interleukin 6 expression [2, 13]: UP-UP
- Tumor necrosis factor expression [2, 13]: Down
- Oncostatin M expression [3]: Down

- Ki [4]: 0.68 nM
Compound: CN1C(=O)c2c(nn(Cc3ccc(C(F)(F)F)cc3)c2Nc2ccccc2)N2C1=N[C@@H]1CCC[C@@H]12 [Example 20 of U.S. Pat. No. 8,273,750, (6aR,9aS)-3-(phenylamino)-5,6a,7,8,9,9a-hexahydro-5-methyl-2-(4-(trifluoromethyl)-benzyl)-cyclopent[4,5]imidazo[1,2-a]pyrazolo[4,3-e]pyrimidin-4(2H)-one]
- cGMP level induced in HL60 cells ([5]; 100 nM ANP + 100 nM PDE1 inhibitor, compared with ANP alone or inhibitor alone): greater than that induced by either the ANP alone or the PDE1 inhibitor alone
- effect of ionomycin on cGMP ([5]; 5 μM ionomycin combined with ANP and the PDE1 inhibitor): only a weak cGMP lowering effect
- cGMP level attained by co-treatment with ANP ([5]; compared with co-treatment with ANP and SCH 51866 (5 μM)): much greater

Compound: CN1C(=O)c2c(nn(Cc3ccc(-c4cccc(F)n4)cc3)c2Nc2ccccc2)N2C1=N[C@@H]1CCC[C@@H]12 [Compound 214]
- Ccl2 mRNA signal [1, 14]: significantly decreased
- IL1β mRNA signal [1, 14]: trended downward
- TNF mRNA signal [1, 14]: significantly decreased
- LPS-induced expression of Ccl2 ([1]; 10 μM): significantly reduces
- LPS-induced expression of IL1β ([1]; 10 μM): significantly reduces
- LPS-induced expression of TNFα ([1]; 10 μM): significantly reduces
- Chemokine (C—C) motif Ligand 2 expression [1]: Down
- Interleukin 1 beta expression [1]: Down
- Tumor necrosis factor expression [1]: Down
- LPS-induced TNFα release [6]: dose-dependent inhibition
- striatal mRNA expression of Ccl2 [2, 15]: attenuates
- striatal mRNA expression of TNF [2, 15]: attenuates
- LPS-induced inflammatory gene expression changes in mice ([2]; 10 mg/kg i.p., 500 μg/kg LPS s.c., 2 hours, FIG. 6): prevents
- striatal mRNA level of IL1-beta [2, 16]: trended to lower levels
- striatal mRNA level of IL6 [2, 16]: trended to lower levels
- Chemokine (C—C) motif Ligand 2 expression [2, 13]: Down
- chemotaxis of BV2 cells toward ADP [7]: inhibits
- chemotaxis of BV2 cells toward ADP ([7]; listed as compound 214): reduced chemotaxis of BV2 cells toward 100 μM ADP in a dose-dependent manner
- ADP-induced elevation in cAMP ([8]; 30 min pretreatment, ADP for 5 minutes, ELISA): significantly augmented
- ADP-induced P-VASP at serine 157 ([8]; 30 min pretreatment, ADP for 5 minutes, Western blot): significantly augmented
- P-VASP level at baseline [8]: no effect
- cAMP level at baseline [8]: no effect
- VASP phosphorylation under basal conditions [9]: little effect
- increase in VASP phosphorylation after ADP ([9]; 100 μM ADP for 5 mins): significantly enhanced
- percentage of responders (tumor volume <500 mm3) ([10]; 1 mg, 5 days a week starting at day 7, alone): increase
- number of macrophages (CD45 positive) in the tumor microenvironment ([10]; alone): significantly reduced
- number of macrophages (CD45 positive) in the tumor microenvironment ([10]; in combination with an anti-PD1 antibody): significantly reduced
- percentage of responders (tumor volume <500 mm3) ([10]; in combination with 150 μg Anti-PD-1 (RMP1-14) on days 7, 11, 14, 17): increase
- LPS-induced increase in expression of IL1β mRNA [11]: significantly blunts; also recorded: suppresses
- Oncostatin M expression [3]: Down

Compound: CC(C)Cn1c(=O)n(C)c(=O)c2[nH]cnc21 [IBMX, reference compound]
- P-VASP level at baseline [8]: did elevate
- cAMP level at baseline [8]: did elevate

Compound: CCCSc1nc(N)c2ncn([C@@H]3O[C@H](COP(=O)(O)OP(=O)(O)C(F)(F)P(=O)(O)O)[C@@H](O)[C@H]3O)c2n1 [AR-C 66096, reference compound]
- chemotaxis of BV2 cells toward ADP [7]: inhibited ADP induced migration
- IC50 [12]: 6.9 nM

Compound: CSCCNc1nc(SCCC(F)(F)F)nc2c1ncn2[C@@H]1O[C@H](COP(=O)(O)OP(=O)(O)C(Cl)(Cl)P(=O)(O)O)[C@@H](O)[C@H]1O [AR-C 69931, reference compound]
- chemotaxis of BV2 cells toward ADP [7]: inhibited ADP induced migration
